Source: US20110136108A1, “XBP1(S) Protein Acting as an Adipocyte Differentiation Marker Having a Facility to Regulate Differentiation into Adipocytes, and an Application Therefor” (CATHOLICE UNIVERSITY INDUSTRY ACADEMIC COOPERATION …, priority 2008, published 2011)

System: PPARγ2 mRNA
Assay: PPARγ2 mRNA expression during adipocyte differentiation (real-time PCR)
Assay type: cell-based, mouse
Conditions: SFG-xbp1i cells, 50 μM rosiglitazone in induction medium
Description: From the cells subjected to differentiation, total RNA was isolated by chloroform extraction and ethanol precipitation (TRIzol Reagent, Invitrogen, Carlsbad, Calif.). Thereafter, the total RNA was used to synthesize cDNA by RT-PCR (M-MLV reverse transcriptase, Promega, MADISON, Wis.). Real-time PCR was performed using a fluorescent probe of SYBR Green (SYBR Green QPCR Master Mix (2×), TAKARA, JAPAN), with cDNA serving as a template. Relative mRNA expression levels were calculated using a comparative Ct method.
In this regard, XBP1(S) expression-knock-down 3T3-L1 precursor cells (SFG-xbp1i) were induced to differentiate into adipocytes in the presence of 0 or 50 μM rosiglitazone in an induction medium during which the relative expression levels of PPARγ2 mRNA were measured.

Compound: CN(CCOc1ccc(CC2SC(=O)NC2=O)cc1)c1ccccn1 (stereo not shown) [rosiglitazone]
- expression level of PPARγ2 mRNA relative to absence of rosiglitazone: 20 times
